Values after ≈ are worked out from the molar mass of the structure shown. “Also recorded” adds a separate entry of the source. Read-outs that look alike come from different tables or passages of the source.
Columns and labels:
P. falciparum Dd2 = experiment: Anti-plasmodial growth inhibition, SYBR green I-based DNA quantification; assay type: cell-based; details: Plasmodium falciparum, 72 h incubation, n=3
Description: (§1) Select compounds described herein were evaluated for structure-activity analyses for anti-plasmodial activity in vitro. For Dd2 EC50 (M), calculations were for n=3. For HepG2 EC50 (M), calculations were for n=1. For the human microsomal stability determination, t was 60 minutes.
Different dilutions of the compound in RPMI 1640 (Life Technologies) from a stock of 10 mM in dimethyl sulfoxide (DMSO) were added to the culture at a 1% parasitemia and 2% hematocrit in 96-well black plates (Santa Cruz Biotechnology). Maximum DMSO concentration in the culture never exceeded 0.25%. Chloroquine at 1 μM was used as a positive control to determine the baseline value. Following 72 h incubation at 37° C., the ability of the compounds to inhibit growth of the parasite was determined by a SYBR green I-based DNA quantification assay (See Bennett et al., 2004, Chemother. 48, 1807-1810; see also Johnson et al., 2007, Antimicrob. Agents. Chemother. 51, 1926-1933; Smilkstein et al., 2004, Antimicrob. Agents. Chemother. 48, 1803-1806). EC50 was calculated (n=3) from a dose response curve that was generated from a concentration range of 0-20 μM using GraphPad Prism v5.0.

[1] = tested on: HepG2 human hepatoma cells; experiment: HepG2 cytotoxicity, MTS cell proliferation assay; assay type: cell-based; details: 48 h, n=1
Description: as §1
Selected compounds were evaluated for cytotoxicity using HepG2 human hepatoma cells. A 384-well clear bottom plate was seeded with 2,500 cells/well and incubated for 24 h. Serial dilutions of the compound (were added to the plate and plates were incubated for an additional 48 h. Viability of cells were assessed by MTS [(3-(4,5-dimethylthiazol-2-yl)-5-(3-carboxymethoxyphenyl)-2-(4-sulfophenyl)-2H-tetrazolium) cell proliferation assay (CellTiter 96® Aqueous non-radioactive cell proliferation assay, Promega) (See Cory et al., Cancer Communications, 3, 1991, p. 207-212).

[2] = Plasma pharmacokinetics and liver distribution study in female BALB/c mice; assay type: in vivo, mouse; details: 100 mg/kg, female BALB/c mice; for Tmax: mouse, plasma, read-out: Tmax (plasma)
Description: A plasma pharmacokinetics and liver distribution study of selected compounds, including Pyrrolopyridine-008 (2015-foleyc-216), Pyrrolopyridine-D20-ent (2015-foleyc-217), and Pyrrolopyridine-M03 (2015-foleyc-218), in female BALB/c mice was conducted following a single intraperitoneal and oral administration. […] The blood samples were collected from a set of […] mice at each time point in labeled micro centrifuge tube containing K2EDTA as anticoagulant. Plasma samples were separated by centrifugation at 4000 rpm for 10 min and stored below −70° C. until bioanalysis. After collection of blood sample, animals were humanely euthanized by carbon dioxide asphyxiation to collect liver from Group 1 and Group 2 at all the time points. The collected tissues were rinsed in PBS and were homogenized with nine times of liver weight in ice cold phosphate buffer saline (pH 7.4) and stored below −70° C. until bio-analysis. Total homogenate volume was ten times the tissue weight. All samples were processed for analysis by protein precipitation using acetonitrile and analyzed with fit-for-purpose LC-MS/MS method (LLOQ: 2.01 ng/mL for plasma and 50.30 ng/g for liver). Pharmacokinetic parameters were calculated using the non-compartmental analysis tool of Phoenix WinNonlin® (Version 6.3).

[3] = tested on: synchronized parasite cultures (Dd2); experiment: Stage specific parasite inhibition (Giemsa smears, flow cytometry); assay type: cell-based, P. falciparum; details: for parasite stage development, Giemsa staining: 3×IC50, synchronized Dd2 cultures treated at ring, trophozoite or schizont stages, smears every 12 hours; for parasite stage progression, flow cytometry: 3×IC50, synchronized Dd2 cultures, YoYo-I DNA staining
Description: Select compounds described herein were evaluated for stage specific inhibition of parasite development. Tightly synchronized parasite cultures (Dd2) were treated with 3×IC50 concentrations of compound Tan003-M03 (“M03”), compound ent-Tan003-D20 (“D20-ent”), compound Tan003-O08 (“008”) or compound Tan002-O12 (“012”) at early ring, late ring, trophozoite, and schizont stages. Every 12 hours, Giemsa smears were made for treated cultures and samples were also collected and fixed for flow cytometry. […] Prior to flow analysis, fixed samples were permeabilized, RNase treated, and stained with YoYo-I as described in Bouillon et al., 2013. […] As the parasite matures, the DNA content increases and peaks start to spread to the right because of schizogony. Following reinvasion parasitemia increases in the next growth cycle, which is represented by an increase in peak height.

Asynchronous cultures = experiment: Parasitocidal or parasitostatic determination (rate of killing); assay type: cell-based; details: for parasitocidal activity (rate of killing): 3×IC50, asynchronous cultures treated for 12, 24, 48, or 72 hours, washed, monitored for continued growth
Description: Asynchronous cultures were grown and treated with compounds, vehicle control or Dihydroartemisinin at 3×IC50 to determine their respective rate of killing curves. Cultures were treated for 12, 24, 48, or 72 hours with compound, washed several times to remove any inhibitor, and monitored for continued growth for several days. […] Overall, the exemplary compounds including, but not limited to, Tan003-M03 and ent-Tan003-D20 are parasitocidal agents blocking parasite maturation at the segmenter stage preventing egress, a novel mechanism of action absent among current antimalarials.

Kinetic solubility assay = assay type: physicochemical; details: 24 °C, kinetic from dmso stock, ambient temperature
[4] = PAMPA, Corning Gentest Pre-coated PAMPA plate; assay type: in vitro ADME; details: 1×PBS, pH 7.4, five hours, ambient temperature, read-out: Permeability (log Pe, in [cm/s]) (converted)
Description: For selected compounds, a Parallel artificial membrane permeability assay (PAMPA) analysis was conducted. The 10 mM DMSO stock solutions for selected compounds (Tan003-M03, ent-Tan003-M03, Tan003-O08, and Tan003-D20) were diluted 50 fold with 1×PBS, pH 7.4, for a dose concentration of 200 µM and a volume of 300 μL in the Donor compartment of the Corning Gentest Pre-coated PAMPA plate. After preparation of the Donor plate, any precipitation was noted. The Acceptor compartment was filled with 1×PBS (200 μL), pH 7.4. After careful assembly of the PAMPA plate, it was left to incubate for five hours in the dark at ambient temperature. The previously prepared solubility assay was used to measure the initial concentration of the sample in buffer (C0). After the incubation was complete, the PAMPA plate was disassembled, and the samples were transferred from the Donor and Acceptor plates to 96-well plates for analysis by chemiluminescent nitrogen detection (CLND. The C0 plate was filtered prior to analysis by CLND.

[5] = Human microsomal stability; assay type: in vitro ADME; details: t was 60 minutes
Description: as §1
To determine microsomal stability for selected compounds, a reaction plate was prepared by adding 691.25 μL, pre-warmed (37° C.) microsomal solution (0.63 mg/mL protein in 100 mM KPO4 with 1.3 mM EDTA) to an empty well of a 96 well plate and maintained at 37° C. The diluted 0.1 mM compound (8.75 μL) is added to the microsomal solution in the reaction plate and mixed thoroughly by repeated pipetting. The resulting solutions were pre-incubated for 5 minutes at 37° C. before preparing the T=0 plates. For the T=0 plates, an aliquot (160 μL) of each reaction solution was added to an empty well of a 96 well plate, as an exact replicate of the Reaction Plate. Cold (4° C.) MeOH (400 μL) is added to each well and mixed thoroughly by repeated pipetting. NADPH Regeneration solution (40 μL) is added to each well and mixed thoroughly by repeated pipetting. For the T=60 minute Incubation Plates (without NADPH), an aliquot (160 μL) of each reaction solution was added to an empty well of a 96 well plate, as an exact replicate of the Reaction Plate. LC-MS grade H2O (40 μL) is added to each well and mixed thoroughly by repeated pipetting. The plate was sealed and incubated at 37° C. for the incubation period. After incubation, cold (4° C.) MeOH (400 μL) is added to each well and mixed thoroughly by repeated pipetting. For the T=60 minute Incubation Plates, NADPH (95 μL) was added to the remaining solution (microsomes+test compound) in each well in the previously-prepared reaction plate to initiate the reaction. The plate was sealed and incubated at 37° C. for the incubation period. An aliquot (100 μL) was removed from each well at the desired time point and dispensed into a well of a 96-well plate. 200 μL of cold (4° C.) MeOH was […] the reaction.

[6] = 50 mM NaPO4 pH 6.5 buffer, pH 6.5, aqueous buffer, 50 mM NaPO4 pH6.5, 2.0% DMSO, read-out: Solubility LogS, at pH 6.5 (converted)
[7] = 1×PBS pH 7.4 buffer, pH 7.4, aqueous buffer, 1×PBS pH7.4, 2.0% DMSO, read-out: Solubility LogS, at pH 7.4 (converted)
[8] = SGF pH 1.2 buffer, pH 1.2, simulated gastric fluid, SGF pH1.2, 2.0% DMSO, read-out: Solubility LogS, at pH 1.2 (converted)

| SMILES | EC50 (P. falciparum Dd2) [nM] | EC50 [1] [nM] | Tmax ([2]; ip, single intraperitoneal dose) [min] | Tmax ([2]; single oral dose) [min] | plasma concentrations quantifiable till ([2]; single intraperitoneal dose) [h] | plasma concentrations quantifiable till ([2]; single oral dose) [h] | parasite stage development, Giemsa staining [3] | parasite stage progression, flow cytometry [3] | parasitocidal activity (rate of killing) (Asynchronous cultures) | solubility at 24 h (Kinetic solubility assay; [6]) [µM] | solubility at 24 h (Kinetic solubility assay; [7]) [µM] | solubility at 24 h (Kinetic solubility assay; [8]) [µM] | Papp at 5 h, 200 µM [4] [×10⁻⁶ cm/s] | Human microsomal stability (%) [5] [%] | viable parasites in asynchronous culture (Asynchronous cultures; treatment for 72 hours) |
| --- | --- | --- | --- | --- | --- | --- | --- | --- | --- | --- | --- | --- | --- | --- | --- |
| CCOC(=O)c1cc2c(c(-c3ccccc3)n1)[C@@H](CCO)N([S@+]([O-])C(C)(C)C)C2 [Tan002-O12, Ethyl (R)-2-((R)-tert-butylsulfinyl)-3-(2-hydroxyethyl)-4-phenyl-2,3-dihydro-1H-pyrrolo[3,4-c]pyridine-6-carboxylate] | 890 ± 130 | > 100000 | 60 | 30 | 12 | 12 | inhibit parasite development before egress | block parasite stage progression prior to egress | not seen; also recorded: did not show any parasitocidal activity |  |  |  |  |  |  |
| CC(C)(C)[S@@+]([O-])N1Cc2cc(C(=O)NCc3ccc4c(c3)OCO4)nc(-c3cccc(-c4cccnc4)c3)c2[C@H]1CCO [Tan003-008] | 530 ± 110 | 41000 |  |  |  |  |  |  |  | 10 (≈ 5.99 µg/mL) | 12.6 (≈ 7.54 µg/mL) | 158 (≈ 94.9 µg/mL) | 1.82 | < 1 |  |
| CC(C)(C)[S@+]([O-])N1Cc2cc(C(=O)NCc3ccccc3F)nc(-c3cccc(-c4cccnc4)c3)c2[C@@H]1CCO [Tan003-D20] | 380 ± 20 |  |  |  |  |  |  |  |  | 6.31 (≈ 3.61 µg/mL) | 7.94 (≈ 4.55 µg/mL) | 158 (≈ 90.8 µg/mL) | 2.4 | <1 |  |
| CC(C)NC(=O)N1Cc2cc(C(=O)NCC(F)(F)F)nc(-c3cccc(-c4cc5ccccc5o4)c3)c2[C@H]1CCO [Tan003-M03, (R)-4-(3-(benzofuran-2-yl)phenyl)-3-(2-hydroxyethyl)-N^2-isopropyl-N^6-(2,2,2-trifluoroethyl)-1,3-dihydro-2H-pyrrolo[3,4-c]pyridine-2,6-dicarboxamide] | 240 ± 70 | 45000 |  |  |  |  | inhibit parasite development before egress | block parasite stage progression prior to egress | parasitocidal and prohibit progression beyond segmenter stages; also recorded: parasitocidal and prevent any parasite development beyond the schizont stage when treated for at least 48 hours | 6.31 (≈ 3.57 µg/mL) | 7.94 (≈ 4.5 µg/mL) | 7.94 (≈ 4.5 µg/mL) | 3.98 | 61.5 |  |
| CC(C)(C)[S@@+]([O-])N1Cc2cc(C(=O)NCc3ccc4c(c3)OCO4)nc(-c3cccc(-c4cccnc4)c3)c2[C@H]1CCO [Tan003-O08, (R)-N-(benzo[d][1,3]dioxol-5-ylmethyl)-2-((R)-tert-butylsulfinyl)-3-(2-hydroxyethyl)-4-(3-(pyridin-3-yl)phenyl)-2,3-dihydro-1H-pyrrolo[3,4-c]pyridine-6-carboxamide] |  |  |  |  |  |  | inhibit parasite development before egress | block parasite stage progression prior to egress |  |  |  |  |  |  | significantly decreases viable parasites |
| CC(C)(C)[S@@+]([O-])N1Cc2cc(C(=O)NCc3ccccc3F)nc(-c3cccc(-c4cccnc4)c3)c2[C@H]1CCO [ent-Tan003-D20, (R)-2-((R)-tert-butylsulfinyl)-N-(2-fluorobenzyl)-3-(2-hydroxyethyl)-4-(3-(pyridin-3-yl)phenyl)-2,3-dihydro-1H-pyrrolo[3,4-c]pyridine-6-carboxamide] | 380 ± 90 | 60000 |  |  |  |  | inhibit parasite development before egress | block parasite stage progression prior to egress | parasitocidal and prohibit progression beyond segmenter stages; also recorded: parasitocidal and prevent any parasite development beyond the schizont stage when treated for at least 48 hours |  |  |  |  |  |  |
| CC(C)NC(=O)N1Cc2cc(C(=O)NCC(F)(F)F)nc(-c3cccc(-c4cc5ccccc5o4)c3)c2[C@@H]1CCO [ent-Tan003-M03] | 200 ± 20 |  |  |  |  |  |  |  |  |  | 6.31 (≈ 3.57 µg/mL) |  |  | 62.7 |  |
